We go through five molecules from paper PMC7112222, “Investigation of pyrimidine nucleoside analogues as chemical probes to assess compound effects on the proliferation of Trypanosoma cruzi intracellular parasites” (PLoS Neglected Tropical Diseases, 2020).

The subject of assay [1] is T. cruzi intracellular amastigotes. As to the kind of experiment: Image-based assay of the number of T. cruzi infected cells (intracellular amastigotes in 3T3 host cells). Format: cell-based, Trypanosoma cruzi. As to conditions: for IC50 / inhibition at 183 µM / Emax: Trypanosoma cruzi; for T. cruzi Wash off IC50 value: compound wash off, further 72 hours without compound; for inhibition at 183 µM: 48 h, read-out: inhibition of T. cruzi growth at highest test concentration. The protocol: (§1) Parasites and host cells were maintained as outlined previously. Briefly, host 3T3 fibroblasts (ATCC, CCL-92) were grown in RPMI medium (Thermo Fisher Scientific, USA) with no phenol red, supplemented with 10% FBS (Thermo Fisher Scientific, USA) and incubated at 37°C in 5% CO2. Host cells were harvested at 70% confluency and were split every 2–3 days in 175 cm^2 flasks. 3T3 cells were cultured up to passage 7 as contact inhibition was reduced or lost at higher passages. Prior to infection with T. cruzi trypomastigotes, host cells were seeded at 1.2 x 10^6 cells in 75 cm^2 or 4 x 10^5 cells in 25 cm^2 flasks and grown for 24 hours before parasite addition. Parasites were added at a multiplicity of infection (MOI) of 10:1 and incubated for 24 hours before non-infected trypomastigotes were washed off the host cell bed with PBS supplemented with Ca^2+ and Mg^2+ (Thermo Fisher Scientific, USA). Incubation was continued for a further 3 days, until tissue culture trypomastigotes began to egress from host cells. Egressed parasites were used for assays or to continue the infective life cycle in vitro.
The activity of the nucleoside analogues against T. cruzi intracellular amastigotes following 24, 48 hours exposure and compound wash off, was determined using image-based techniques as previously described. Briefly, 14-point serial dilutions of the compounds in 100% DMSO were prepared and then further diluted in sterile water at a ratio of 1:21 compound: water. Five microliters of the diluted compounds were added to wells of T. cruzi infected host cells, using a MiniTrak compound handling device (Perkin Elmer, USA) with final concentrations in the plate ranging from 183 μM to 4.6 x 10^−4 μM. All experiments were performed with two separate biological replicates.
IC50 values for inhibitory activity of both the nucleoside analogues tested as DNA probes and known inhibitors tested to determine their effect on replication of T. cruzi were calculated in GraphPad Prism 5, using sigmoidal dose response with variable slope. […] The p-value for difference in the % activity at Emax concentrations for compounds with known activity (EdU identified parasites, compared to Hoechst identified parasites) against T. cruzi was determined using GraphPad Prism 5, using an unpaired student’s t-test. […] The Emax for each compound was at least two data points in from the beginning of the plateau of activity in the IC50 curve, as previously described.

The test system is the same in assay [2]. As to the kind of experiment: Detection of T. cruzi replication following exposure to inhibitors (EdU incorporation vs Hoechst). Format: cell-based, Trypanosoma cruzi. As to conditions: for IC50: 48 hours exposure, mean ± SD. The protocol:
The addition of host cells, parasites and compounds were as described for the T. cruzi image based method previously reported. […] Addition of nuclear and cytoplasmic dyes was undertaken as previously reported and images captured on an Opera confocal image-based system at 20x magnification. Image analysis was performed with a script developed in Columbus software (CHEMICAL LABEL INCORPORATION SCRIPT). Control wells were also imaged at an increased, 60x magnification to show the distribution of staining and the structure of the parasites within host cells. Eight background control wells consisted of infected host cells, fixed and exposed to Hoechst and the click chemistry cocktail, without the addition of the chemical probe EdU. […] All images taken were not modified and were taken on an Opera, confocal image-based reader.

For the next assay, the system named is HEK293 cells. As to the kind of experiment: Redox-based assay to assess HEK293 viability. The note with it: 48 hours exposure, highest test concentration 87 μM, EdU value estimated, relative to Emax plateau of 57%. The class given is cell-based, human. As for the experimental part: To determine the effect of the nucleoside analogues against a replicating mammalian cell line, analogues were tested against HEK293 cells, utilising a REDOX-based metabolic assay to assess cell viability as previously described. […] Experiments were performed over two biological replicates.

Another assay deals with T. cruzi amastigote DNA. The assay can be described thus: Incorporation of pyrimidine nucleoside analogues into T. cruzi amastigote DNA (click chemistry, colocalisation with Hoechst). The class given is cell-based, Trypanosoma cruzi. As to conditions: for incorporation (no incorporation observed): 48 hours, concentrations up to a maximum of 73 μM. The protocol:
T. cruzi infected 3T3 fibroblasts were initially exposed to nucleoside analogues for 48 hours at concentrations ranging from 73 μM to 1.8 x10^-4 μM. Host cell, parasite and compound additions were carried out as previously described. Cells were then stained using a click chemistry azide cocktail, followed by Hoechst to identify nuclear material, as previously reported. The freshly prepared azide cocktail consisted of a final concentration of 5 μM of Alexa Fluor 488 azide (Thermo Fisher Scientific, USA), 1 mM copper sulfate (Sigma Aldrich, USA) and 100 mM sodium ascorbate (Sigma Aldrich, USA), in DPBS. Wells were imaged on an Opera image-based reader (Perkin Elmer, USA) at 20x magnification with 405 nm (defined as Hoechst channel) and 488 nm (defined as Alexa 488 channel) lasers using filter sets/bandwidth (emission) of 450/50 nm and 540/75 nm, respectively. To determine nucleoside analogue incorporation into T. cruzi amastigote DNA, a script was developed utilising the Columbus (PerkinElmer, USA) image-based analysis and data handling platform (CHEMICAL LABEL INCORPORATION SCRIPT). Nucleoside analogues were also tested for DNA incorporation following 2, 4 and 24 hours exposure, at the same concentrations. All experiments were performed in duplicate. The colocalisation of nucleoside analogues and Hoechst (replicating parasites) at each time point (48, 4 and 2 hours) was compared using GraphPad Prism 5.
A CHEMICAL LABEL INCORPORATION SCRIPT developed in Columbus firstly identified Hoechst stained parasites within host cells by spot analysis, utilizing the same building block analysis as we had previously developed to determine T. cruzi infected cells. The physical definition of amastigote DNA was identified by Hoechst, with the only modification being that as there was no cytoplasmic marker, thus segmentation borders in the Hoechst channel were applied, which effectively separated host cells (Fig 2). Further building blocks were added to calculate the intensity of Alexa Fluor 488 within the spots identified by Hoechst, in infected cells. This script was first applied to images to determine the mean fluorescence intensity in the Alexa 488 channel of Hoechst identified parasites, without the addition of the chemical label. The mean plus three times the standard deviation of this intensity was used to define values above background, thus the minimum intensity above background required to identify parasite DNA which successfully incorporated the chemical label. An input box was incorporated into the script, in which this minimum intensity above background was entered. Parameters of the developed script, “CHEMICAL LABEL INCORPORATION” are shown in S1 Table.
• Number of T. cruzi amastigote infected cells (≥5 parasites per cell, identified with Hoechst). • Number of Hoechst identified T. cruzi parasites (in infected cells). • Number of parasites incorporating chemical label (T. cruzi parasites with Alexa 488 intensity above background, in infected cells). • % chemical label incorporation. Alexa 488 spots in infected cells (above background) NO / Hoechst spots in infected cells NO *100 = Percentage colocalisation; where NO = number of objects. • Number of host cells.

Another assay concerns 3T3 cells. As to the kind of experiment: Image-based assay, effect on 3T3 host cells. Format: cell-based. As to conditions: 48 h, highest test concentration 183 μM. As for the experimental part: as §1
[…] Briefly, 14-point serial dilutions of the compounds in 100% DMSO were prepared and then further diluted in sterile water at a ratio of 1:21 compound: water. Five microliters of the diluted compounds were added to wells of T. cruzi infected host cells, using a MiniTrak compound handling device (Perkin Elmer, USA) with final concentrations in the plate ranging from 183 μM to 4.6 x 10^−4 μM. All experiments were performed with two separate biological replicates.
Image analysis was performed with a script developed in Columbus software (CHEMICAL LABEL INCORPORATION SCRIPT). Control wells were also imaged at an increased, 60x magnification to show the distribution of staining and the structure of the parasites within host cells. Eight background control wells consisted of infected host cells, fixed and exposed to Hoechst and the click chemistry cocktail, without the addition of the chemical probe EdU. […] The percentage activity of compounds against parasite number / infected cells (identified with Hoechst) was calculated against a positive control of 12 μM of NFX for the parasite and 30 μM of PURO the host cells; and a negative control of 0.47% DMSO. All images taken were not modified and were taken on an Opera, confocal image-based reader.

[3] abbreviates: 48 hours exposure, well-established intracellular infection assay, mean ± SD, POSA value based on sub-optimal effect (Emax 75%), read-out: IC50 value Infected cells (Hoechst).
[4] abbreviates: Trypanosoma cruzi, then 0.37 μM EdU for 4 hours, number of EdU incorporating parasites, read-out: IC50 value Amastigotes (EdU).
Setting [5] is: Trypanosoma cruzi, number of Hoechst identified parasites in infected cells, read-out: IC50 value Amastigotes (Hoechst).
Setting [6] is: 24 hours exposure, highest test concentration 183 μM.
Where [7] appears, read: 48 hours incubation, highest test concentration 183 μM.

Like-named read-outs stand apart in the source and are kept apart here.

With `O=C(Cn1ccnc1[N+](=O)[O-])NCc1ccccc1` [BZ, benznidazole], the IC50 in assay [1] (setting [3]) came to 6700 ± 640 nM; in assay [2] (setting [4]), 1290 ± 250 nM; in assay [2] (setting [5]) it was 2800 ± 940 nM. In addition, the inhibition at 127 µM in assay [2] (Trypanosoma cruzi, 2 h, read-out: mean inhibition of incorporation of EdU into the parasite DNA) stood at 72 ± 8.7%.

Regarding `C#Cc1cn([C@@H]2O[C@H](CO)[C@@H](O)[C@@H]2Br)c(=O)[nH]c1=O` [Br-ara-EdU, (2′S)-2′-bromo-2′-deoxy-5-ethynyl-uridine], the “T. cruzi 24 IC50 value” in assay [1] (setting [6]) is “NA (NA = ≤50% activity at the highest concentration tested and an IC50 value could not be determined)”. Further, in assay [1] (setting [7]), the “T. cruzi Wash off IC50 value” was “NA (NA = ≤50% activity at the highest concentration tested and an IC50 value could not be determined)”; the “T. cruzi 48 IC50 value” was “NA (NA = ≤50% activity at the highest concentration tested and an IC50 value could not be determined)”. In assay [1] (48 hours incubation), the inhibition at 183 µM was at most 50%. Also, the “HEK293 IC50 value” in the assay on HEK293 cells was “NA (NA = ≤50% activity at the highest concentration tested and an IC50 value could not be determined)”. Also, in the assay with T. cruzi amastigote DNA, the “incorporation into T. cruzi DNA following 48 hours incubation (in words)” value is “did not” and the “incorporation (no incorporation observed)” value is reported as under 20%. For the same molecule, in the assay on 3T3 cells, the “Host cell 3T3 IC50 value 48 h” value was “NA (NA = ≤50% activity at the highest concentration tested and an IC50 value could not be determined)”.

`C#Cc1cn([C@@H]2O[C@H](CO)[C@@H](O)[C@@H]2Cl)c(=O)[nH]c1=O` [Cl-ara-EdU, (2′S)-chloro-2′-deoxy-5-ethynyl-uridine]: in assay [1] (setting [6]), the “T. cruzi 24 IC50 value” was “NA (NA = ≤50% activity at the highest concentration tested and an IC50 value could not be determined)”. For the same molecule, in assay [1] (setting [7]), the “T. cruzi Wash off IC50 value” is “NA (NA = ≤50% activity at the highest concentration tested and an IC50 value could not be determined)”; the “T. cruzi 48 IC50 value” was “NA (NA = ≤50% activity at the highest concentration tested and an IC50 value could not be determined)”. Moreover, the inhibition at 183 µM in assay [1] (48 hours incubation) is at most 50%. Further, the “HEK293 IC50 value” with HEK293 cells is “NA (NA = ≤50% activity at the highest concentration tested and an IC50 value could not be determined)”. Further, in the assay with T. cruzi amastigote DNA, the “incorporation into T. cruzi DNA following 48 hours incubation (in words)” value is “did not” and the “incorporation (no incorporation observed)” value was under 20%. Further, the “Host cell 3T3 IC50 value 48 h” value in the assay with 3T3 cells is “NA (NA = ≤50% activity at the highest concentration tested and an IC50 value could not be determined)”.

Regarding `CC[C@@H]([C@H](C)O)n1ncn(-c2ccc(N3CCN(c4ccc(OC[C@@H]5CO[C@@](Cn6cncn6)(c6ccc(F)cc6F)C5)cc4)CC3)cc2)c1=O` [POSA, posaconazole], the IC50 came out at 4 ± 8.2 nM in assay [1] (setting [3]), 3.8 ± 1 nM in assay [2] (setting [4]) and 3.8 ± 1 nM in assay [2] (setting [5]). Moreover, the Emax in assay [1] (48 hours, infected cells (Hoechst), read-out: maximum activity (Emax) against T. cruzi) amounted to 75%. The “inhibition of EdU incorporation” value in assay [2] (2 hours exposure, 1 μM (250 x the IC50 value), then 1.83 μM EdU 2 hours) is “no inhibition”.

On to `COc1ccc(C[C@H](N)C(=O)N[C@H]2[C@@H](O)[C@H](n3cnc4c(N(C)C)ncnc43)O[C@@H]2CO)cc1` [PURO, puromycin], for which the IC50 in assay [1] (24 hours exposure, highest test concentration 183 μM, read-out: T. cruzi 24 IC50 value) is 7600 ± 1200 nM; in assay [1] (48 hours incubation, highest test concentration 183 μM, read-out: T. cruzi 48 IC50 value) it was 2360 ± 780 nM; with HEK293 cells (Homo sapiens, HEK293) it was 410 ± 170 nM; in the assay on 3T3 cells (Mus musculus, NIH3T3, read-out: Host cell 3T3 IC50 value 48 h), 4400 ± 800 nM. For the same molecule, the Emax was 92% in assay [1] (24 hours exposure, read-out: T. cruzi 24 relative Emax (in brackets) (converted)) and 100% in assay [1] (48 hours incubation, read-out: T. cruzi 48 relative Emax (in brackets) (converted)).

The IC50 is the concentration needed to halve the response being measured. In general, Emax refers to the size of the effect at its maximum, as opposed to the concentration needed.
